ChEMBL document CHEMBL5034037, “Synthesis, Characterization, and Preclinical Evaluation of a Small-Molecule Prostate-Specific Membrane Antigen-Targeted Monomethyl Auristatin E Conjugate” (J Med Chem, 2021)
Active and inactive are the calls of the source. No cut-off for these calls is given here. Where a SMILES comes first, the peptide text is derived from it. [ ]: non-standard residue; d: D form. The star is where a group is joined. Dolaproine = CO[C@@H]([C@@H]1CCCN1)[C@@H](C)C(=O)O; Dil = CC[C@H](C)[C@H](NC)[C@@H](CC(=O)O)OC; X2 = C[C@@H](N*)[C@@H](O)c1ccccc1; NMeV = CN[C@H](C(=O)O)C(C)C

How the values were obtained:
[1] = Acute toxicity in Wistar rat assessed as decrease in motor activity; settings: in vivo
PC-3 [2] = experiment: Induction of intracellular reactive oxygen species production in human PC-3 cells incubated for 1 hr measured at CC50 concentration by amperometric method; format: functional, cell-based
[3] = Acute toxicity in iv dosed Wistar male rat assessed as maximum non-lethal dose; format: organism-based; settings: in vivo
[4] = Acute toxicity in Wistar rat assessed as decrease in porphyrin release from nose mucous membrane at 30 mg/kg, iv; format: organism-based; settings: in vivo
[5] = Acute toxicity in iv dosed ICR male mouse assessed as maximum non-lethal dose; format: organism-based; settings: in vivo
PC-3 [6] = experiment: Cytotoxicity against human PC-3 cells not expressing PMSA measured using MTT assay; format: functional
[7] = Acute toxicity in Wistar rat assessed as decrease in porphyrin release from eye mucous membrane at 30 mg/kg, iv; format: organism-based; settings: in vivo
CWR22R [8] = experiment: Induction of intracellular reactive oxygen species production in human 22Rv1 cells incubated for 1 hr measured at CC50 concentration by amperometric method; format: functional, cell-based
[9] = Acute toxicity in Wistar rat assessed as damage in liver at 30 mg/kg, iv; format: organism-based; settings: in vivo
CWR22R [10] = experiment: Cytotoxicity against human 22Rv1 cells expressing PMSA measured using MTT assay; format: functional

Row | Compound | Activity [1] | Activity (PC-3 [2]) | Activity [3] [mg/kg] | Activity [4] | Activity [5] [mg/kg] | CC50 (PC-3 [6]) [nM] | Activity [7] | Activity (CWR22R [8]) | Activity [9] | CC50 (CWR22R [10]) [nM]
1 | CC[C@H](C)[C@@H]([C@@H](CC(=O)N1CCC[C@H]1[C@H](OC)[C@@H](C)C(=O)N[C@H](C)[C@@H](O)c1ccccc1)OC)N(C)C(=O)[C@@H](NC(=O)[C@@H](NC)C(C)C)C(C)C (H-[NMeV]V[Dil][Dolaproine]-X2) | Toxic | Active | 0.29 | Toxic | 0.1 | 0.97 | Toxic | Active | Toxic | 1.44
2 | CC(=O)O[C@@]12CO[C@@H]1C[C@H](O)[C@@]1(C)C(=O)[C@H](O)C3=C(C)[C@@H](OC(=O)[C@H](O)[C@@H](NC(=O)OC(C)(C)C)c4ccccc4)C[C@@](O)([C@@H](OC(=O)c4ccccc4)[C@H]21)C3(C)C [DOCETAXEL ANHYDROUS] | – | – | – | – | – | 6.7 | – | – | – | 3.3
